Data reported in patent US7148249B2, “Indolinones substituted by heterocycles, the preparation thereof and their use as medicaments” (Boehringer Ingelheim Pharma GmbH & Co. KG, priority 2002, dated 2006).

Tested on: Human umbilical endothelial cells (HUVEC)
Experiment: Inhibition of VEGF165-stimulated HUVEC proliferation (3H-thymidine incorporation)
Type: cell-based
Details: HUVEC proliferation stimulated with 5 ng/ml VEGF165 and 10 μg/ml heparin; 76 h incubation + 16 h 3H-thymidine
Experimental: Human umbilical endothelial cells (HUVEC) were cultivated in IMDM (Gibco BRL), supplemented with 10% foetal calf serum (FBS) (Sigma), 50 μM of β-mercaptoethanol (Fluka), standard antibiotics, 15 μg/ml of endothelial cell growth factor (ECGS, Collaborative Biomedical Products) and 100 μg/ml of heparin (Sigma) on gelatine-coated culture dishes (0.2% gelatine, Sigma) at 37° C., under 5% CO2 in a water-saturated atmosphere.
In order to investigate the inhibitory activity of the compounds according to the invention the cells were “starved” for 16 hours, i.e. kept in culture medium without growth factors (ECGS+heparin). The cells were detached from the culture dishes using trypsin/EDTA and washed once in serum-containing medium. Then they were seeded out in amounts of 2.5×10^3 cells per well.
The proliferation of the cells was stimulated with 5 ng/ml of VEGF165 (vascular endothelial growth factor; H. Weich, GBF Braunschweig) and 10 μg/ml of heparin. As a control, 6 wells in each dish were not stimulated.
The compounds according to the invention were dissolved in 100% dimethylsulphoxide and added to the cultures in various dilutions as triple measurements, the maximum dimethylsulphoxide concentration being 0.3%.
The cells were incubated for 76 hours at 37° C., then for a further 16 hours ^3H-thymidine (0.1 μCi/well, Amersham) was added in order to determine the DNA synthesis. Then the radioactively labelled cells were immobilised on filter mats and the radioactivity incorporated was measured in a β-counter. In order to determine the inhibitory activity of the compounds according to the invention the mean value of the non-stimulated cells was subtracted from the mean value of the factor-stimulated cells (in the presence or absence of the compounds according to the invention).
The relative cell proliferation was calculated as a percentage of the control (HUVEC without inhibitor) and the concentration of active substance which inhibits the proliferation of the cells by 50% (IC50) was determined.

Point of comparison: “3-(Z)-{1-(4-[N-acetyl-N-(2-dimethylaminoethyl)-amino]-phenylamino)-1-(3,4-(difluoromethylenedioxy)phenyl)-methylene}-6-chloro-2-indolinone [(al)]”, IC50 83 nM. Against it:
- Cn1cnc2cc(/C(Nc3ccc(N4CCCC4=O)cc3)=C3/C(=O)Nc4cc(F)ccc43)ccc21 [(as), 3-(Z)-{1-[4-(pyrrolid-2-on-1-yl)-phenylamino]-1-(1-methyl-benzimidazol-5-yl)-methylene}-6-fluoro-2-indolinone] — 4.6-fold lower, 18 nM
- CN(C)CCN(c1ccc(N/C(=C2\C(=O)Nc3cc(Cl)ccc32)c2ccc3c(c2)OCCO3)cc1Cl)S(C)(=O)=O [(ba), 6-chloro-3-(Z)-[1-(4-{N-(2-dimethylamino-ethyl)-N-methanesulphonyl-amino}-3-chloro-phenylamino)-1-(1,2-ethylenedioxyphen-4-yl)-methylene]-2-indolinone] — 2.8-fold lower, 30 nM
- COc1cc(N/C(=C2\C(=O)Nc3cc(Cl)ccc32)c2ccc3c(c2)OCCO3)ccc1N(C)C(=O)CN(C)C [(bb), 6-chloro-3-(Z)-{1-[4-(N-dimethylaminomethylcarbonyl-N-methyl-amino)-3-methoxy-phenylamino]-1-(1,2-ethylenedioxyphen-4-yl)-methylene}-2-indolinone] — 2.5-fold lower, 33 nM
- COc1cc(N/C(=C2\C(=O)Nc3cc(F)ccc32)c2ccc3c(c2)OCCO3)ccc1N(C)C(=O)CN(C)C [(bc), 6-fluoro-3-(Z)-{1-[4-(N-dimethylaminomethylcarbonyl-N-methyl-amino)-3-methoxy-phenylamino]-1-(1,2-ethylenedioxyphen-4-yl)-methylene}-2-indolinone] — 17-fold lower, 5 nM
- CN(C)CCN(c1ccc(N/C(=C2\C(=O)Nc3cc(F)ccc32)c2ccc3c(c2)OCCO3)cc1Cl)S(C)(=O)=O [(bd), 6-fluoro-3-(Z)-[1-(4-{N-(2-dimethylamino-ethyl)-N-methanesulphonyl-amino}-3-chloro-phenylamino)-1-(1,2-ethylenedioxyphen-4-yl)-methylene]-2-indolinone] — 17-fold lower, 5 nM

Same assay, conditions: Homo sapiens; HUVEC proliferation stimulated with 5 ng/ml VEGF165 and 10 μg/ml heparin; 76 h incubation + 16 h 3H-thymidine

Point of comparison: `Cn1ccnc1-c1ccc(N/C(=C2\C(=O)Nc3cc(Cl)ccc32)c2ccc3nccnc3c2)cc1` [(ar), 3-(Z)-{1-(4-[1-methylimidazol-2-yl]-phenylamino)-1-(quinoxalin-6-yl)-methylene}-6-chloro-2-indolinone], IC50 71 nM. Against it:
- CN(C)Cc1ccc(N/C(=C2\C(=O)Nc3cc(Cl)ccc32)c2ccc3c(c2)OCO3)cc1 [(a), 3-(Z)-{1-[4-(dimethylaminomethyl)-phenylamino]-1-(3,4-methylenedioxyphenyl)-methylene}-6-chloro-2-indolinone] — 6.5-fold lower, 11 nM
- CCC(=O)N(CCN(C)C)c1ccc(N/C(=C2\C(=O)Nc3cc(F)ccc32)c2ccc3c(c2)OCCO3)cc1 [(aa), 3-(Z)-{1-(4-[N-propionyl-N-(2-dimethylaminoethyl)-amino]-phenylamino)-1-(3,4-ethylenedioxyphenyl)-methylene}-6-fluoro-2-indolinone] — 120-fold lower, 0.6 nM
- CN(C)CCN(c1ccc(N/C(=C2\C(=O)Nc3cc(F)ccc32)c2ccc3c(c2)OCCO3)cc1)S(C)(=O)=O [(ab), 3-(Z)-{1-(4-[N-methanesulphonyl-N-(2-dimethylaminoethyl)-amino]-phenylamino)-1-(3,4-ethylenedioxyphenyl)-methylene}-6-fluoro-2-indolinone] — 71-fold lower, 1 nM
- COC(=O)c1ccc2c(c1)NC(=O)/C2=C(\Nc1ccc(N(CCN(C)C)C(C)=O)cc1)c1ccc2c(c1)OCCO2 [(ac), 3-(Z)-{1-(4-[N-acetyl-N-(2-dimethylaminoethyl)-amino]-phenylamino)-1-(3,4-ethylenedioxyphenyl)-methylene}-6-methoxycarbonyl-2-indolinone] — 360-fold lower, 0.2 nM
- COC(=O)c1ccc2c(c1)NC(=O)/C2=C(\Nc1ccc(C(=O)N(C)CCN(C)C)cc1)c1ccc2c(c1)OCCO2 [(ad), 3-(Z)-{1-(4-[N-methyl-N-(2-dimethylaminoethyl)aminocarbonyl]-phenylamino)-1-(3,4-ethylenedioxyphenyl)-methylene}-6-methoxycarbonyl-2-indolinone] — 180-fold lower, 0.4 nM
- COC(=O)c1ccc2c(c1)NC(=O)/C2=C(\Nc1ccc(C(=O)N(C)CCCN(C)C)cc1)c1ccc2c(c1)OCCO2 [(ae), 3-(Z)-{1-(4-[N-methyl-N-(3-dimethylaminopropyl)aminocarbonyl]-phenylamino)-1-(3,4-ethylenedioxyphenyl)-methylene}-6-methoxycarbonyl-2-indolinone] — 140-fold lower, 0.5 nM
- COC(=O)c1ccc2c(c1)NC(=O)/C2=C(\Nc1ccc(C(=O)N(C)CCN(C)C)cc1)c1ccc2c(c1)OCO2 [(af), 3-(Z)-{1-(4-[N-methyl-N-(2-dimethylaminoethyl)aminocarbonyl]-phenylamino)-1-(3,4-methylenedioxyphenyl)-methylene}-6-methoxycarbonyl-2-indolinone] — 140-fold lower, 0.5 nM
- CN1CCN(Cc2ccc(N/C(=C3\C(=O)Nc4cc(C(=O)N(C)C)ccc43)c3ccc4c(c3)OCCO4)cc2)CC1 [(ah), 3-(Z)-{1-(4-[1-methyl-piperazin-4-yl-methyl]-phenylamino)-1-(3,4-ethylenedioxy-phenyl)-methylene}-6-dimethylaminocarbonyl-2-indolinone] — within 1.5-fold, 100 nM
- CN1CCC(N(C)C(=O)c2ccc(N/C(=C3\C(=O)Nc4cc(F)ccc43)c3ccc4c(c3)OCCO4)cc2)CC1 [(am), 3-(Z)-{1-(4-[N-methyl-N-(1-methyl-4-piperidinyl)-aminocarbonyl]-phenylamino)-1-(3,4-ethylenedioxyphenyl)-methylene}-6-fluoro-2-indolinone] — 14-fold lower, 5 nM
- CN(C)CC(=O)N(C)c1ccc(N/C(=C2\C(=O)Nc3ccccc32)c2ccoc2)cc1 [(an), 3-(Z)-{1-(4-[N-methyl-N-(dimethylaminomethylcarbonyl)-amino]-phenylamino)-1-(3-furyl)-methylene}-2-indolinone] — within 1.5-fold, 58 nM
- CN(C)CCN(C(=O)c1cccnc1)c1ccc(N/C(=C2\C(=O)Nc3cc(Cl)ccc32)c2ccc3c(c2)OCO3)cc1 [(ao), 3-(Z)-{1-(4-[N-(3-pyridylcarbonyl)-N-(2-dimethylaminoethyl)-amino]-phenyl-amino)-1-(3,4-methylenedioxyphenyl)-methylene}-6-chloro-2-indolinone] — 12-fold lower, 6 nM
- CCN(CC)CCS(=O)(=O)c1ccc(N/C(=C2\C(=O)Nc3cc(Cl)ccc32)c2ccc3c(c2)OCO3)cc1 [(ap), 3-(Z)-{1-(4-[2-(diethylamino)ethyl-sulphonyl]-phenylamino)-1-(3,4-methylenedioxyphenyl)-methylene}-6-chloro-2-indolinone] — 1.7-fold higher, 120 nM
- CN(C)Cc1ccc(N/C(=C2\C(=O)Nc3ccccc32)c2ccc3c(c2)ncn3C)cc1 [(aq), 3-(Z)-{1-[4-(dimethylaminomethyl)-phenylamino]-1-(1-methyl-benzimidazol-5-yl)-methylene}-2-indolinone] — 3-fold lower, 24 nM
- Cc1cc(C)n(-c2ccc(N/C(=C3\C(=O)Nc4cc(F)ccc43)c3ccc4c(c3)ncn4C)cc2)n1 [(at), 3-(Z)-{1-[4-(3,5-dimethyl-pyrazol-1-yl)-phenylamino]-1-(1-methyl-benzimidazol-5-yl)-methylene}-6-fluoro-2-indolinone] — 2.4-fold lower, 30 nM
- CN(C)CCN(C)S(=O)(=O)c1ccc(N/C(=C2\C(=O)Nc3cc(F)ccc32)c2ccc3c(c2)ncn3C)cc1 [(au), 3-(Z)-{1-[4-(N-methyl-N-{2-dimethylamino-ethyl}-aminosulphonyl)-phenylamino]-1-(1-methyl-benzimidazol-5-yl)-methylene}-6-fluoro-2-indolinone] — 5.5-fold lower, 13 nM
- CN(C)Cc1ccc(N/C(=C2\C(=O)Nc3ccccc32)c2ccc3c(c2)nnn3C)cc1 [(av), 3-(Z)-{1-[4-(dimethylaminomethyl)-phenylamino]-1-(1-methyl-benzotriazol-5-yl)-methylene}-2-indolinone] — within 1.5-fold, 94 nM
- CN1CCN(C(=O)Cc2ccc(N/C(=C3\C(=O)Nc4cc(F)ccc43)c3ccc4c(c3)OCCO4)cc2)CC1 [(aw), 3-(Z)-{1-(4-[(1-methyl-piperazin-4-yl)-carbonylmethyl]-phenylamino)-1-(3,4-ethylenedioxyphenyl)-methylene}-6-fluoro-2-indolinone] — 18-fold lower, 4 nM
- CN1CCN(CC(=O)N(C)c2ccc(N/C(=C3\C(=O)Nc4cc(Cl)ccc43)c3ccc4c(c3)OCO4)cc2)CC1 [(az), 3-(Z)-{1-(4-[N-methyl-N-(4-methylpiperazin-1-yl-methylcarbonyl)-amino]-phenyl-amino)-1-(3,4-methylenedioxyphenyl)-methylene}-6-chloro-2-indolinone] — 12-fold lower, 6 nM
- CN1CCN(CC(=O)N(C)c2ccc(N/C(=C3\C(=O)Nc4cc(Cl)ccc43)c3ccc4nccnc4c3)cc2)CC1 [(b), 3-(Z)-{1-(4-[N-methyl-N-(4-methylpiperazin-1-yl-methylcarbonyl)-amino]-phenyl-amino)-1-(quinoxalin-6-yl)-methylene}-6-chloro-2-indolinone] — 18-fold lower, 4 nM
